Several values for one entry are separate records, joined by “and”; a condition that tells them apart may be missing. Identical values can stand only once. Like-named read-outs stand apart in the source and are kept apart here.
Columns and labels:
[1] = Circulating 4-AP levels by HPLC (Example 11); assay type: in vivo, mice; conditions: for Circulating 4-AP levels, Amount / concentration at 1 h: 1 hour after i.p. injection, individual mice; for concentration at 1 h: mouse, blood, ip, 1 /g/kg, read-out: Circulating 4-AP levels, Amount
Method: 4-AP was injected i.p. at the indicated time points after the beginning of treatment. Mice received PTX on day 0 of the experiment, and half of those mice also were injected with 4-AP at this time, and every day thereafter, at a dosage of 1/g/kg. Blood samples were drawn 3 and 7 days after the beginning of the experiment and were taken 1 hour after the injection of 4-AP. Circulating levels of 4-AP were determined by HPLC analysis.

Guillain-Barré Syndrome = conditions: cited from earlier work
PTX-induced CIPN [2] = test: Four PTX injections, concurrent 4-AP (Example 2); assay type: in vivo, mice; conditions: 4-AP 1 mg/kg daily concurrent
Method: A subset of animals concurrently received 4-AP (1 mg/kg, daily), which was started at the same as the initial PTX treatment and continued throughout. Functional outcome responses were recorded at three-week intervals throughout the study period, and included von Frey monofilament testing, cold plate thermal sensitivity, CatWalk™ gait analysis, and nerve conduction testing. All animals had functionally demonstrable peripheral neuropathy at six weeks.

[3] = system: A549 human lung cancer cell line; test: 4-AP co-applied with cisplatin to cancer cells in vitro (Example 10); assay type: cell-based; conditions: 5 days, 1 mM 4-AP
Method: (§1) To investigate the effects of 4-AP treatment on cancer cells, 4-AP was co-applied with either paclitaxel or cisplatin in dose response curves extending over a >20-fold range to the widely studied E0771 murine breast cancer cell line and the A549 human lung cancer cell line. Cells were exposed to paclitaxel or cisplatin for 5 days in the presence or absence of 1 mM 4-AP. This concentration of 4-AP is typically used for in vitro studies, and greatly exceeds achievable concentrations in vivo. This higher dose would increase the likelihood of detecting protective activity.

kidney = test: Kidney histology (H&E) after PTX with or without 4-AP (Example 8); assay type: in vivo, mice; conditions: PTX day 0
Method: To examine effects on the kidney histological studies were conducted on this tissue. Mice received PTX on day 0 of the experiment, and half of those mice also were injected with 4-AP at this time, and every day thereafter, at a dosage of 2 mg/kg. Mice not receiving 4-AP were injected with saline to control for any stress induced by daily injections. Experimental groups also included mice receiving no PTX treatment, and treated only with daily injections of saline. Mice were sacrificed after 1 week. Mice were perfused with 4% paraformaldehyde and kidneys were sectioned and stained with haematoxylin & eosin (H&E).

[4] = system: chronic spinal cord injury; conditions: individuals with chronic spinal cord injury; cited from earlier work
[5] = system: E0771 murine breast cancer cell line; test: 4-AP co-applied with paclitaxel to cancer cells in vitro (Example 10); assay type: cell-based
Method: as §1

[6] = system: glial fibrillary acidic protein (GFAP); test: GFAP immunofluorescence in corpus callosum after PTX with or without 4-AP (Example 9); assay type: in vivo; conditions: E0771 tumor-bearing mice; PTX 35 mg/kg day one; 4-AP daily
Method: To determine whether 4-AP treatment can prevent PTX-induced increases in a reactive inflammatory response in the brain, as detected by increased expression of glial fibrillary acidic protein (GFAP), 16-week-old female C57BL/6 mice were inoculated with a triple negative murine breast cancer cell line E0771. When tumors were palpable, the mice were injected with either paclitaxel and water, 4-AP, both, or saline as a control. Paclitaxel (35 mg/kg) was injected on day one and 4-AP and water were injected daily. The mice were sacrificed on day nine and their brains were perfused and harvested. Brains were cryosectioned coronally.
The mouse brain sections were stained with anti-GFAP antibodies, followed by a fluorescent secondary, for analysis via immunofluorescence.

CIS-induced CIPN = assay type: in vivo, mice; conditions: 4-AP 1 mg/kg daily for next six weeks
Method: In these experiments, 16-week-old C7BL/6 female mice were treated with CIS (2.5 mg/kg, once weekly, i.p.) for eight weeks. Animals were then treated with 4-AP (1 mg/kg daily) for the next six weeks (n=4).

[7] = system: acute peripheral nerve traumatic crush injuries; conditions: localized peripheral nerve crush injuries; cited from earlier work
PTX-induced CIPN [8] = test: Repetitive PTX exposure, 4-AP weeks 6-12, follow-up to week 18 (Example 6); assay type: in vivo, mice
Method: To examine this question, 16 week old C7BL/6 female mice were given four cycles of PTX treatment at doses of 35 mg/kg PTX (i.p.). All animals had functionally demonstrable peripheral neuropathy at six weeks. Animals were then treated with the same dose and treatment regimen of 4-AP used in FIG. 5.

[9] = mice treated with 4-AP only, 3 days post
[10] = mice treated with PTX + 4-AP, 7 day 1st draw
[11] = 4-AP 0.5 mg/kg/day weeks 6-12, observed to week 18
[12] = 4-AP 0.5 mg/kg/day weeks 6-12, 12 and 18 week time points

Compound: Nc1ccncc1 [4-AP, 4-aminopyridine]
- PTX-induced changes in kidney function (inferred from 4-AP renal clearance) ([1]; PTX day 0, 4-AP daily): prevented PTX-induced changes in kidney function
- circulating 4-AP levels, 4-AP alone versus 4-AP+PTX ([1]; day 3 or day 7, 1 hour after i.p. injection): did not differ
- Circulating 4-AP levels, Amount [1, 9]: 0.393 µM and 0.376 µM and 0.486 µM and 0.427 µM
- Circulating 4-AP levels, Amount ([1]; mice treated with 4-AP only, 7 day 1st draw): 0.376 µM and 0.246 µM and 0.293 µM and 0.140 µM and 0.337 µM
- Circulating 4-AP levels, Amount ([1]; mice treated with PTX + 4-AP, 3 days post): 0.721 µM and 0.504 µM and 0.312 µM and 0.321 µM and 0.277 µM
- Circulating 4-AP levels, Amount [1, 10]: 0.292 µM and 0.274 µM and 0.236 µM and 0.231 µM
- concentration at 1 h [1, 9]: 298 nM
- concentration at 1 h [1, 10]: 352 nM
- pain scores (McGill Pain Inventory questionnaire, visual analog scale) (Guillain-Barré Syndrome; 4-AP vs placebo, p=0.92): no difference
- nerve conduction velocity (Guillain-Barré Syndrome; Guillain-Barré patients): no clinically significant changes
- mechanical allodynia, Von Frey filament testing (PTX-induced CIPN [2]; four 35 mg/kg PTX i.p. at three-week intervals): no changes from baseline in their response
- amplitude and velocity of nerve impulse conduction (PTX-induced CIPN [2]; four 35 mg/kg PTX): prevented the development of these changes
- loss of cold sensitivity, paw lifts and hind paw licks on cold plate (PTX-induced CIPN [2]; four 35 mg/kg PTX): prevented the development of these changes
- sensitivity to cold, jumps off cold plate (PTX-induced CIPN [2]; four 35 mg/kg PTX): no changes from baseline in this parameter
- protection of cancer cells from cisplatin [3]: does not protect
- proximal and distal tubules, H&E staining (kidney; 4-AP 2 mg/kg daily, sacrificed after 1 week): normal proximal and distal tubules
- histological kidney damage caused by PTX exposure (kidney; 4-AP co-treatment): prevented multiple aspects of histological kidney damage
- Phase III outcome [4]: failed to reveal significant benefits
- neuropathic pain [4]: decrease neuropathic pain in some individuals
- protection of cancer cells from PTX ([5]; 5 days exposure to PTX in vitro, concurrent 4-AP (1 mM)): did not protect
- sensitivity of cancer cells to paclitaxel ([5]; 5 days, 1 mM 4-AP): appears to even increase sensitivity to low doses of paclitaxel
- PTX-induced increased expression of GFAP, corpus callosum [6]: greatly reduced
- body weight (CIS-induced CIPN; CIS 2.5 mg/kg once weekly i.p. for eight weeks): regained normal body weight
- hyperalgesia, Von Frey filament analysis (CIS-induced CIPN; CIS eight weeks): restoration of normal levels of sensitivity
- nerve impulse amplitude (CIS-induced CIPN; CIS eight weeks): also restored by 4-AP treatment
- nerve impulse velocity (CIS-induced CIPN; CIS eight weeks): also restored by 4-AP treatment
- recovery of thermal hyperalgesia and mechanical allodynia [7]: enhanced recovery on the specific parameter or thermal hyperalgesia, but not mechanical allodynia
- nerve conduction latency (PTX-induced CIPN [8]; 4-AP 0.5 mg/kg/day weeks 6-12): reverse PTX-induced abnormalities in nerve conduction latency
- Catwalk Regularity Index (PTX-induced CIPN [8]; [11]): benefits observed at Week 9 (i.e, after 3 weeks of 4-AP treatment) and retained for at least 6 weeks after 4-AP treatment ended
- durability of benefits on peripheral nerve function (PTX-induced CIPN [8]; [11]): Benefits were still present six weeks after the end of treatment
- mechanical hypersensitivity, von Frey filament testing (PTX-induced CIPN [8]; [11]): Benefits began to be observed at Week 12 and were maintained at Weeks 15 and 18
- paw lifts and jumping behavior, cold-plate stimulus (PTX-induced CIPN [8]; [11]): durable reversal
- G-ratio (PTX-induced CIPN [8]; [12]): restored to normal at the 12 week time point, and these benefits are maintained at the 18 week time point
- circularity (PTX-induced CIPN [8]; [12]): restored to normal at the 12 week time point, and these benefits are maintained at the 18 week time point

Reference: US20260248773A1, “POTASSIUM CHANNEL BLOCKERS OR DERIVATIVES THEREOF FOR PREVENTING, ALLEVIATING, AND/OR TREATING TISSUE DYSFUNCTION CAUSED BY TOXIC INSULTS” (priority 2022, published 2026)
